Assay results as given in ChEMBL document CHEMBL4665624, “Synthesis of 5-(4-(1H-phenanthro[9,10-d]imidazol-2-yl)benzylidene)thiazolidine-2,4-dione as promising DNA and serum albumin-binding agents and evaluation of antitumor activity” (Eur J Med Chem, 2019).

Columns and labels:
SK-MEL-28 = test: Antitumor activity against human SK-MEL-28 cells assessed as cell growth inhibition at 10 uM incubated for 48 hrs by sulforhodamine B assay; type: functional; settings: read-out: GI
COLO 205 = test: Antitumor activity against human COLO205 cells assessed as cell growth inhibition at 10 uM incubated for 48 hrs by sulforhodamine B assay; type: functional; settings: read-out: GI
MOLT-4 = test: Antitumor activity against human MOLT4 cells assessed as cell growth inhibition at 10 uM incubated for 48 hrs by sulforhodamine B assay; type: functional; settings: read-out: GI
HCC 2998 = test: Antitumor activity against human HCC2998 cells assessed as cell growth inhibition at 10 uM incubated for 48 hrs by sulforhodamine B assay; type: functional; settings: read-out: GI
UACC-62 = test: Antitumor activity against human UACC-62 cells assessed as cell growth inhibition at 10 uM incubated for 48 hrs by sulforhodamine B assay; type: functional; settings: read-out: GI
SN12C = test: Antitumor activity against human SN12C cells assessed as cell growth inhibition at 10 uM incubated for 48 hrs by sulforhodamine B assay; type: functional; settings: read-out: GI
ACHN = test: Antitumor activity against human ACHN cells assessed as cell growth inhibition at 10 uM incubated for 48 hrs by sulforhodamine B assay; type: functional; settings: read-out: GI
IGROV-1 = test: Antitumor activity against human IGROV1 cells assessed as cell growth inhibition at 10 uM incubated for 48 hrs by sulforhodamine B assay; type: functional; settings: read-out: GI
Hs-578T = test: Antitumor activity against human HS 578T cells assessed as cell growth inhibition at 10 uM incubated for 48 hrs by sulforhodamine B assay; type: functional; settings: read-out: GI
A498 = test: Antitumor activity against human A498 cells assessed as cell growth inhibition at 10 uM incubated for 48 hrs by sulforhodamine B assay; type: functional; settings: read-out: GI
HCT-116 = test: Antitumor activity against human HCT116 cells assessed as cell growth inhibition at 10 uM incubated for 48 hrs by sulforhodamine B assay; type: functional; settings: read-out: GI
HT-29 = test: Antitumor activity against human HT-29 cells assessed as cell growth inhibition at 10 uM incubated for 48 hrs by sulforhodamine B assay; type: functional; settings: read-out: GI
OVCAR-8 = test: Antitumor activity against human OVCAR-8 cells assessed as cell growth inhibition at 10 uM incubated for 48 hrs by sulforhodamine B assay; type: functional; settings: read-out: GI
KM12 = test: Antitumor activity against human KM12 cells assessed as cell growth inhibition at 10 uM incubated for 48 hrs by sulforhodamine B assay; type: functional; settings: read-out: GI
U-251 = test: Antitumor activity against human U251 cells assessed as cell growth inhibition at 10 uM incubated for 48 hrs by sulforhodamine B assay; type: functional; settings: read-out: GI
SR = test: Antitumor activity against human SR cells assessed as cell growth inhibition at 10 uM incubated for 48 hrs by sulforhodamine B assay; type: functional; settings: read-out: GI
PC-3 = test: Antitumor activity against human PC-3 cells assessed as cell growth inhibition at 10 uM incubated for 48 hrs by sulforhodamine B assay; type: functional; settings: read-out: GI
NCI-H226 = test: Antitumor activity against human NCI-H226 assessed as cell growth inhibition at 10 uM incubated for 48 hrs by sulforhodamine B assay; type: functional; settings: read-out: GI
OVCAR-4 = test: Antitumor activity against human OVCAR-4 cells assessed as cell growth inhibition at 10 uM incubated for 48 hrs by sulforhodamine B assay; type: functional; settings: read-out: GI
HOP-92 = test: Antitumor activity against human HOP92 cells assessed as cell growth inhibition at 10 uM incubated for 48 hrs by sulforhodamine B assay; type: functional; settings: read-out: GI
BT-549 = test: Antitumor activity against human BT-549 cells assessed as cell growth inhibition at 10 uM incubated for 48 hrs by sulforhodamine B assay; type: functional; settings: read-out: GI
M14 = test: Antitumor activity against human M14 cells assessed as cell growth inhibition at 10 uM incubated for 48 hrs by sulforhodamine B assay; type: functional; settings: read-out: GI
NCI-H522 = test: Antitumor activity against human NCI-H522 cells assessed as cell growth inhibition at 10 uM incubated for 48 hrs by sulforhodamine B assay; type: functional; settings: read-out: GI
MDA-MB-231 = test: Antitumor activity against human MDA-MB-231/ATCC cells assessed as cell growth inhibition at 10 uM incubated for 48 hrs by sulforhodamine B assay; type: functional; settings: read-out: GI
SF-295 = test: Antitumor activity against human SF295 cells assessed as cell growth inhibition at 10 uM incubated for 48 hrs by sulforhodamine B assay; type: functional; settings: read-out: GI
786-0 = test: Antitumor activity against human 786-0 cells assessed as cell growth inhibition at 10 uM incubated for 48 hrs by sulforhodamine B assay; type: functional; settings: read-out: GI
EKVX = test: Antitumor activity against human EKVX cells assessed as cell growth inhibition at 10 uM incubated for 48 hrs by sulforhodamine B assay; type: functional; settings: read-out: GI
MDA-MB-468 = test: Antitumor activity against human MDA-MB-468 cells assessed as cell growth inhibition at 10 uM incubated for 48 hrs by sulforhodamine B assay; type: functional; settings: read-out: GI
LOX IMVI = test: Antitumor activity against human LOX IMVI cells assessed as cell growth inhibition at 10 uM incubated for 48 hrs by sulforhodamine B assay; type: functional; settings: read-out: GI
NCI-H460 = test: Antitumor activity against human NCI-H460 assessed as cell growth inhibition at 10 uM incubated for 48 hrs by sulforhodamine B assay; type: functional; settings: read-out: GI
OVCAR-3 = test: Antitumor activity against human OVCAR-3 cells assessed as cell growth inhibition at 10 uM incubated for 48 hrs by sulforhodamine B assay; type: functional; settings: read-out: GI
CCRF-CEM = test: Antitumor activity against human CCRF-CEM cells assessed as cell growth inhibition at 10 uM incubated for 48 hrs by sulforhodamine B assay; type: functional; settings: read-out: GI
MDA-MB-435 = test: Antitumor activity against human MDA-MB-435 cells assessed as cell growth inhibition at 10 uM incubated for 48 hrs by sulforhodamine B assay; type: functional; settings: read-out: GI
SNB-19 = test: Antitumor activity against human SNB-19 cells assessed as cell growth inhibition at 10 uM incubated for 48 hrs by sulforhodamine B assay; type: functional; settings: read-out: GI
Malme-3M = test: Antitumor activity against human MALME-3M cells assessed as cell growth inhibition at 10 uM incubated for 48 hrs by sulforhodamine B assay; type: functional; settings: read-out: GI
HL-60(TB) = test: Antitumor activity against human HL-60(TB) cells assessed as cell growth inhibition at 10 uM incubated for 48 hrs by sulforhodamine B assay; type: functional; settings: read-out: GI
SW-620 = test: Antitumor activity against human SW620 cells assessed as cell growth inhibition at 10 uM incubated for 48 hrs by sulforhodamine B assay; settings: SW-620, 48 h, read-out: GI
SF-268 = test: Antitumor activity against human SF268 cells assessed as cell growth inhibition at 10 uM incubated for 48 hrs by sulforhodamine B assay; type: functional; settings: read-out: GI
SK-OV-3 = test: Antitumor activity against human SK-OV-3 cells assessed as cell growth inhibition at 10 uM incubated for 48 hrs by sulforhodamine B assay; type: functional; settings: read-out: GI
SNB-75 = test: Antitumor activity against human SNB-75 cells assessed as cell growth inhibition at 10 uM incubated for 48 hrs by sulforhodamine B assay; type: functional; settings: read-out: GI
NCI/ADR-RES = test: Antitumor activity against human NCI/ADR-RES cells assessed as cell growth inhibition at 10 uM incubated for 48 hrs by sulforhodamine B assay; type: functional; settings: read-out: GI
RPMI-8226 = test: Antitumor activity against human RPMI8226 cells assessed as cell growth inhibition at 10 uM incubated for 48 hrs by sulforhodamine B assay; type: functional; settings: read-out: GI
HCT-15 = test: Antitumor activity against human HCT15 cells assessed as cell growth inhibition at 10 uM incubated for 48 hrs by sulforhodamine B assay; type: functional; settings: read-out: GI
RXF 393 = test: Antitumor activity against human RXF 393 cells assessed as cell growth inhibition at 10 uM incubated for 48 hrs by sulforhodamine B assay; type: functional; settings: read-out: GI
UO-31 = test: Antitumor activity against human UO-31 cells assessed as cell growth inhibition at 10 uM incubated for 48 hrs by sulforhodamine B assay; type: functional; settings: read-out: GI
NCI-H23 = test: Antitumor activity against human NCI-H23 cells assessed as cell growth inhibition at 10 uM incubated for 48 hrs by sulforhodamine B assay; type: functional; settings: read-out: GI
K562 = test: Antitumor activity against human K562 cells assessed as cell growth inhibition at 10 uM incubated for 48 hrs by sulforhodamine B assay; type: functional; settings: read-out: GI
MCF7 = test: Antitumor activity against human MCF7 cells assessed as cell growth inhibition at 10 uM incubated for 48 hrs by sulforhodamine B assay; type: functional; settings: read-out: GI

Compound: O=Cc1ccc(-c2nc3c([nH]2)-c2cccc4cccc-3c24)cc1
- inhibition of growth at 10 µM (SK-MEL-28): < 10%
- inhibition of growth at 10 µM (COLO 205): < 10%
- inhibition of growth at 10 µM (MOLT-4): 20.5%
- inhibition of growth at 10 µM (HCC 2998): 12.8%
- inhibition of growth at 10 µM (UACC-62): 19.8%
- inhibition of growth at 10 µM (SN12C): < 10%
- inhibition of growth at 10 µM (ACHN): < 10%
- inhibition of growth at 10 µM (IGROV-1): 28.9%
- inhibition of growth at 10 µM (Hs-578T): < 10%
- inhibition of growth at 10 µM (A498): < 10%
- inhibition of growth at 10 µM (HCT-116): 19.2%
- inhibition of growth at 10 µM (HT-29): < 10%
- inhibition of growth at 10 µM (OVCAR-8): < 10%
- inhibition of growth at 10 µM (KM12): 13%
- inhibition of growth at 10 µM (U-251): < 10%
- inhibition of growth at 10 µM (SR): 16%
- inhibition of growth at 10 µM (PC-3): 21.1%
- inhibition of growth at 10 µM (NCI-H226): 12.4%
- inhibition of growth at 10 µM (OVCAR-4): 27.4%
- inhibition of growth at 10 µM (HOP-92): 14%
- inhibition of growth at 10 µM (BT-549): < 10%
- inhibition of growth at 10 µM (M14): < 10%
- inhibition of growth at 10 µM (NCI-H522): < 10%
- inhibition of growth at 10 µM (MDA-MB-231): 25.6%
- inhibition of growth at 10 µM (SF-295): < 10%
- inhibition of growth at 10 µM (786-0): < 10%
- inhibition of growth at 10 µM (EKVX): 23%
- inhibition of growth at 10 µM (MDA-MB-468): 30.9%
- inhibition of growth at 10 µM (LOX IMVI): 25.8%
- inhibition of growth at 10 µM (NCI-H460): 23.6%
- inhibition of growth at 10 µM (OVCAR-3): 12.3%
- inhibition of growth at 10 µM (CCRF-CEM): 11.1%
- inhibition of growth at 10 µM (MDA-MB-435): < 10%
- inhibition of growth at 10 µM (SNB-19): < 10%
- inhibition of growth at 10 µM (Malme-3M): < 10%
- inhibition of growth at 10 µM (HL-60(TB)): < 10%
- inhibition of growth at 10 µM (SW-620): < 10%
- inhibition of growth at 10 µM (SF-268): 13.3%
- inhibition of growth at 10 µM (SK-OV-3): < 10%
- inhibition of growth at 10 µM (SNB-75): < 10%
- inhibition of growth at 10 µM (NCI/ADR-RES): < 10%
- inhibition of growth at 10 µM (RPMI-8226): 22.8%
- inhibition of growth at 10 µM (HCT-15): 23.7%
- inhibition of growth at 10 µM (RXF 393): < 10%
- inhibition of growth at 10 µM (UO-31): 33.4%
- inhibition of growth at 10 µM (NCI-H23): 14.9%
- inhibition of growth at 10 µM (K562): 16.5%
- inhibition of growth at 10 µM (MCF7): 51.6%
